Measured values from patent publication US20220062319A1, “COMBINATION IN THE TREATMENT OF NONTUBERCULOUS MYCOBACTERIAL DISEASES” (priority 2019, published 2022).
In brackets after ≈: the same amount, converted by molar mass. Like-named read-outs stand apart in the source and are kept apart here.

What was measured:
[1] = system: other mycobacterial species; test: organism not typed; format: cell-based
[2] = in vivo; cited from earlier work
Mycobacterium xenopi = test: REMA MIC, control strain; format: cell-based; details: 168 h, control strain M. xenopi (×1), 7H9, 7 days
Mycobacterium kansasii = test: REMA MIC and MBC, M. kansasii; format: cell-based
Mycobacterium chimaera = test: REMA MIC and MBC, M. chimaera; format: cell-based; details: Mycobacterium intracellulare, M. chimaera clinical isolates (×3), one line per isolate; for MIC: REMA
Mycobacterium avium = test: REMA MIC and MBC, M. avium; format: cell-based; details: M. avium clinical isolates (×4), one line per isolate; for MIC: REMA
M. abscessus = test: Bedaquiline MIC, M. abscessus; format: cell-based; details: Mycobacteroides abscessus
Mycobacterium marinum = test: REMA MIC and MBC, M. marinum; format: cell-based
M. kansasii = test: Bedaquiline MIC, M. kansasii; format: cell-based; details: Mycobacterium kansasii, n=1, read-out: MIC Median
M. fortuitum = test: Bedaquiline MIC, M. fortuitum; format: cell-based
M. bovis = test: microbe, parasite or virus in culture; format: cell-based; details: Mycobacterium tuberculosis variant bovis, read-out: MIC Median
[3] = system: NTM clinical isolates (slow grower mycobacteria); test: MBC determination, NTM clinical isolates overall; format: cell-based; details: MBC = lowest concentration killing 100% of the bacteria
Experimental: The MBC test allows determination of the minimum concentration of an agent necessary to achieve a bactericidal effect. The MBC was determined once the MIC was determined previously. To perform the MBC, the dilution representing the MIC and at least two of the more concentrated test product dilutions were plated and enumerated to determine viable CFU/ml. […] NTM clinical isolates used for this study were isolated from patients. In total, there were 18 isolates (in addition to the control strain): mycobacterium avium (x4 isolates), mycobacterium intracellulare (x4), mycobacterium chimaera (x3), mycobacterium kansasii (x2), mycobacterium ulcerans (x2), mycobacterium simiae (x2) and mycobacterium marinum (x1). […] MBC was considered the lowest concentration at which the bedaquiline kills 100% of the bacteria.

[4] = system: Mycobacterium intracellulare; test: REMA MIC and MBC, M. intracellulare; format: cell-based; details: M. intracellulare clinical isolates (×4), one line per isolate; for MIC: REMA
M. marinum = test: Bedaquiline MIC, M. marinum; format: cell-based; details: Mycobacterium marinum, n=1, read-out: MIC Median
[5] = system: M. avium/M. intracellulare (MAC); test: Bedaquiline MIC, MAC; format: cell-based
M. ulcerans = test: Bedaquiline MIC, M. ulcerans; format: cell-based; details: Mycobacterium ulcerans
M. smegmatis = test: Bedaquiline MIC, M. smegmatis; format: cell-based
Mycobacterium simiae = test: REMA MIC and MBC, M. simiae; format: cell-based; details: M. simiae clinical isolates (×2), one line per isolate; for MIC: REMA

In the case of `COc1nc2ccc(Br)cc2cc1[C@@H](c1ccccc1)[C@@](O)(CCN(C)C)c1cccc2ccccc12` [Bedaquiline, (alpha S, beta R)-6-bromo-alpha-[2-(dimethylamino)ethyl]-2-methoxy-alpha-1-naphthalenyl-beta-phenyl-3-quinolineethanol], the MIC [1] is given as < 0.1 µg/mL, the “improvement of bioavailability with food” value [2] is given as “approximately 2 fold” and the MIC (Mycobacterium xenopi) is given as > 2 µg/mL. For the same compound, the MIC (Mycobacterium kansasii) was 0.015 µg/mL (≈ 0.027 µM), the MBC (Mycobacterium chimaera) was 1 µg/mL (≈ 1.8 µM) and the MIC (Mycobacterium chimaera) was 0.015 µg/mL (≈ 0.027 µM). The MIC (Mycobacterium chimaera; read-out: MIC) was 0.007 µg/mL (≈ 0.0126 µM), the MBC (Mycobacterium avium) was 1 µg/mL (≈ 1.8 µM) and the MIC (Mycobacterium avium) was 0.015 µg/mL (≈ 0.027 µM). It also gave an MIC (Mycobacterium avium; read-out: MIC) of 0.007 µg/mL (≈ 0.0126 µM), an MIC (M. abscessus; 1 isolate of M. abscessus, read-out: MIC) of 0.25 µg/mL (≈ 0.45 µM) and an MIC (M. abscessus; M. abscessus, n=1, read-out: MIC Median) of 0.25 µg/mL (≈ 0.45 µM). The MIC (Mycobacterium marinum) was 0.015 µg/mL (≈ 0.027 µM), the MBC (Mycobacterium marinum; M. marinum clinical isolate (×1)) was 2 µg/mL (≈ 3.6 µM) and the MIC (M. kansasii) was 0.003 µg/mL (≈ 0.0054 µM). It also gave an MIC (M. fortuitum; Mycolicibacterium fortuitum, n=5, read-out: MIC Median) of 0.01 µg/mL (≈ 0.018 µM), an MIC range (M. fortuitum; n=5) of 0.007 to 0.010 µg/mL and an MIC (M. bovis) of 0.003 µg/mL (≈ 0.0054 µM). For the same compound, the bactericidal activity [3] was “bactericidal activity for the majority of clinical isolates tested”, the MBC [4] was 2 µg/mL (≈ 3.6 µM) and the MIC [4] was 0.015 µg/mL (≈ 0.027 µM). It also gave an MIC ([4]; read-out: MIC) of 0.007 µg/mL (≈ 0.0126 µM), an MIC (M. marinum) of 0.003 µg/mL (≈ 0.0054 µM) and an MIC ([5]; Mycobacterium avium, n=7, read-out: MIC Median) of 0.01 µg/mL (≈ 0.018 µM). The MIC range ([5]; n=7) was 0.007 to 0.010 µg/mL, the MIC (M. ulcerans; 1 isolate of M. ulcerans, read-out: MIC) was 0.5 µg/mL (≈ 0.9 µM) and the MIC (M. ulcerans; M. ulcerans, n=1, read-out: MIC Median) was 0.5 µg/mL (≈ 0.9 µM). For the same compound, the MIC (M. smegmatis; Mycolicibacterium smegmatis, n=7, read-out: MIC Median) was 0.007 µg/mL (≈ 0.0126 µM), the MIC range (M. smegmatis; n=7) was 0.003 to 0.10 µg/mL and the MBC (Mycobacterium simiae) was 1 µg/mL (≈ 1.8 µM). It also gave an MIC (Mycobacterium simiae) of 0.015 µg/mL (≈ 0.027 µM) and an MIC (Mycobacterium simiae; read-out: MIC) of 0.03 µg/mL (≈ 0.054 µM).
